# “Also recorded” adds a separate entry of the source.
# Columns and labels:
# Format in all cases: in vivo, human
# post-menopausal women [1] = test: Example 2: adverse events (AEs, TEAEs) per treatment group
# Text: This is confirmed by the following statistical analysis. Using a Poisson regression model with a random effect for the patient and treatment group as a covariate to model the count of TEAEs in the different treatment groups, it can be shown that there is no statistical difference between the treatment groups (p value of 0.099). Second, a chi-square test was used to assess if the prevalence of patients reporting TEAEs in each treatment group was similar. No statistical difference was found between the treatment groups (p value of 0.575).
# fasting glucose = test: Example 3: fasting glucose, change from baseline to week 12
# post-menopausal women [2] = test: Example 2 dose-finding study: weekly frequency of moderate to severe VMS (absolute and relative change, responders)
# Text: Enrolment was approximately 18 months. Individual subject participation was up to 27 weeks: up to 6 weeks pre-screening and washout, up to 4 weeks screening and run-in period, up to 91 days (13 weeks) of E4 monohydrate or placebo treatment followed by 2 weeks (14 days) of progestin therapy and a Follow up visit 1 week after completion of progestin therapy in non-hysterectomied subjects only.
# To define the minimum effective dose (MED) of the oral dose of E4 by evaluating changes in frequency and in severity of moderate to severe vasomotor symptoms (VMS).
# This was a prospective, multicentre, randomised, placebo-controlled, double-blinded, dose-finding study.
# Eligible subjects were hysterectomied and non-hysterectomied post-menopausal women aged 40 to 65 years, inclusive, presenting at least 7 moderate to severe hot flushes/day or at least 50 moderate to severe hot flushes/week.
# All treatments (Estetrol, hereinafter E4 as monohydrate, [2.5 mg, 5 mg, 10 mg, 15 mg] capsule) were administered once daily (QD) per os for at least 12 consecutive weeks until the last biological assessments (Day 91 maximum) had been performed.
# In order to analyse the data recorded in this study, treatment groups have been compared using an ANCOVA (analysis of covariance) with respect to the change in weekly frequency of moderate to severe VMS from baseline to weeks 4 and 12. The ANCOVA model includes treatment (“trt1”) and study centre (“SITEPOOL”) as a fixed effect and baseline (“base”) as a covariate.
# VMS frequency was also studied by grouping patients according to their degree of response.
smiles,measurement,setting,value
"C[C@]12CC[C@@H]3c4ccc(O)cc4CC[C@H]3[C@@H]1[C@@H](O)[C@@H](O)[C@@H]2O [E4 monohydrate, estetrol monohydrate]",Count of Treatment Emergent AEs (TEAEs),post-menopausal women [1]; 2.5 mg daily,61
same,Percentage of patients with TEAE leading to Study Discontinuation,post-menopausal women [1]; 2.5 mg daily,1.9
same,Percentage of patients with severe TEAE,post-menopausal women [1]; 2.5 mg daily,7.7
same,Count of Treatment Emergent AEs (TEAEs),post-menopausal women [1]; 5 mg daily,63
same,Percentage of patients with TEAE leading to Study Discontinuation,post-menopausal women [1]; 5 mg daily,6.4
same,Percentage of patients with severe TEAE,post-menopausal women [1]; 5 mg daily,10.6
same,Count of Treatment Emergent AEs (TEAEs),post-menopausal women [1]; 10 mg daily,95
same,Percentage of patients with TEAE leading to Study Discontinuation,post-menopausal women [1]; 10 mg daily,5.6
same,Percentage of patients with severe TEAE,post-menopausal women [1]; 10 mg daily,7.4
same,average AEs per patient among patients who had AEs,post-menopausal women [1]; 10 mg group,3.2 AEs per patient
same,Count of Treatment Emergent AEs (TEAEs),post-menopausal women [1]; 15 mg daily,82
same,Percentage of patients with TEAE leading to Study Discontinuation,post-menopausal women [1]; 15 mg daily,4.1
same,Percentage of patients with severe TEAE,post-menopausal women [1]; 15 mg daily,6.1
same,average AEs per patient among patients who had AEs,post-menopausal women [1]; 15 mg group,2.6 AEs
same,fasting glucose levels,"fasting glucose; 15 mg and 20 mg, after 12 weeks, monohydrate",decreased; also recorded: reduced
same,"Fasting Glucose, mean","fasting glucose; 15 mg, Baseline",5.156
same,"Fasting Glucose, mean","fasting glucose; 15 mg, Week 12",5.057
same,"Fasting Glucose, mean","fasting glucose; 20 mg, Baseline",5.177
same,"Fasting Glucose, mean","fasting glucose; 20 mg, Week 12",5.057
same,Mean change from baseline in weekly frequency of moderate to severe VMS,"post-menopausal women [2]; 2.5 mg QD, week 0",0.00
same,Mean relative change (% from baseline) in weekly frequency of moderate to severe VMS,"post-menopausal women [2]; 2.5 mg QD, week 0",0%
same,Mean relative change (% from baseline) in weekly frequency of moderate to severe VMS,"post-menopausal women [2]; 2.5 mg QD, week 1",−23%
same,Mean relative change (% from baseline) in weekly frequency of moderate to severe VMS,"post-menopausal women [2]; 2.5 mg QD, week 2",−34%
same,Mean relative change (% from baseline) in weekly frequency of moderate to severe VMS,"post-menopausal women [2]; 2.5 mg QD, week 3",−44%
same,Mean relative change (% from baseline) in weekly frequency of moderate to severe VMS,"post-menopausal women [2]; 2.5 mg QD, week 4",−49%
same,Mean relative change (% from baseline) in weekly frequency of moderate to severe VMS,"post-menopausal women [2]; 2.5 mg QD, week 5",−50%
same,Mean relative change (% from baseline) in weekly frequency of moderate to severe VMS,"post-menopausal women [2]; 2.5 mg QD, week 6",−54%
same,Mean relative change (% from baseline) in weekly frequency of moderate to severe VMS,"post-menopausal women [2]; 2.5 mg QD, week 7",−57%
same,Mean relative change (% from baseline) in weekly frequency of moderate to severe VMS,"post-menopausal women [2]; 2.5 mg QD, week 8",−58%
same,Mean relative change (% from baseline) in weekly frequency of moderate to severe VMS,"post-menopausal women [2]; 2.5 mg QD, week 9",−61%
same,Mean relative change (% from baseline) in weekly frequency of moderate to severe VMS,"post-menopausal women [2]; 2.5 mg QD, week 10",−61%
same,Mean relative change (% from baseline) in weekly frequency of moderate to severe VMS,"post-menopausal women [2]; 2.5 mg QD, week 11",−60%
same,Mean relative change (% from baseline) in weekly frequency of moderate to severe VMS,"post-menopausal women [2]; 2.5 mg QD, week 12",−61%
same,Mean change from baseline in weekly frequency of moderate to severe VMS,"post-menopausal women [2]; 5 mg QD, week 0",0.00
same,Mean relative change (% from baseline) in weekly frequency of moderate to severe VMS,"post-menopausal women [2]; 5 mg QD, week 0",0%
same,Mean relative change (% from baseline) in weekly frequency of moderate to severe VMS,"post-menopausal women [2]; 5 mg QD, week 1",−23%
same,Mean relative change (% from baseline) in weekly frequency of moderate to severe VMS,"post-menopausal women [2]; 5 mg QD, week 2",−33%
same,Mean relative change (% from baseline) in weekly frequency of moderate to severe VMS,"post-menopausal women [2]; 5 mg QD, week 3",−38%
same,Mean relative change (% from baseline) in weekly frequency of moderate to severe VMS,"post-menopausal women [2]; 5 mg QD, week 4",−43%
same,Mean relative change (% from baseline) in weekly frequency of moderate to severe VMS,"post-menopausal women [2]; 5 mg QD, week 5",−47%
same,Mean relative change (% from baseline) in weekly frequency of moderate to severe VMS,"post-menopausal women [2]; 5 mg QD, week 6",−57%
same,Mean relative change (% from baseline) in weekly frequency of moderate to severe VMS,"post-menopausal women [2]; 5 mg QD, week 7",−57%
same,Mean relative change (% from baseline) in weekly frequency of moderate to severe VMS,"post-menopausal women [2]; 5 mg QD, week 8",−57%
same,Mean relative change (% from baseline) in weekly frequency of moderate to severe VMS,"post-menopausal women [2]; 5 mg QD, week 9",−59%
same,Mean relative change (% from baseline) in weekly frequency of moderate to severe VMS,"post-menopausal women [2]; 5 mg QD, week 10",−60%
same,Mean relative change (% from baseline) in weekly frequency of moderate to severe VMS,"post-menopausal women [2]; 5 mg QD, week 11",−63%
same,Mean relative change (% from baseline) in weekly frequency of moderate to severe VMS,"post-menopausal women [2]; 5 mg QD, week 12",−62%

# Source: US20260207623A1, “USE OF ESTETROL IN HEPATICALLY IMPAIRED PATIENTS” (ESTETRA SRL, priority 2022, published 2026)
